Entries after “also recorded” stand apart in the source; their conditions may differ.
Test system: C57BL/6 mice with DSS-induced mild colitis
Assay: DSS induced mild colitis treatment with LGG metabolites (2.5% DSS)
Assay type: in vivo, mouse
Conditions: metabolite i.p. twice
Protocol: FIG. 13A-13M. IPA requires Ocln to alleviate LPS-induced leaky epithelium. FIG. 13A, experimental design. Organoids were derived from tamoxifen-inducible, intestine-specific Ocln-knockout (KO) mice generated by crossing a floxed Ocln^fl/fl with Villin-CreERT2 mice. FIG. 13B, Representative images and FIG. 13C, quantitative analysis of permeability assay. LPS was added to CCM media (basolateral side) with and without IPA […] and IAM (200 μM) (n=3 mice). *** P<0.001, compared with WT control, †P<0.05 compared with KO-control. FIG. 13D, Representative images of immunofluorescent staining of Ocln in WT control and Ocln KO conventional mice, L=lumen. MNA improves but ASA exacerbates dextran sodium sulfate (DSS)-induced leaky gut. FIG. 13E, experimental design, evaluation in vivo of metabolites (Met). Methylnicotinamide (MNA. […]) and L-argininosuccinate (ASA. 3.6 mg/kg) were administered (i.p.) twice 1-day before and 3 days after DSS treatment p.o. 4 kDa fluorescein isothiocyanate (FITC)-dextran was gavaged 4 h before sacrifice. FIG. 13F, body weight of DSS-treated mice with and without metabolites, FIG. 13G, representative images of Ocln-stained colon sections (green; left panel) and ECad (red; middle). Merged images (yellow; right panel) depict Ocln location in TJ of MNA-treated but not in DSS-only and ASA-treated colon (arrows). Quantitative fluorescent intensity of Ocln (FIG. 13H) and ECad (FIG. 13I) in the TJ, relative to DSS only controls. FIG. 13J, DSS scoring. FIG. 13K, representative H&E images of DSS, DSS+ MNA and DSS+ASA colon sections. FIG. 13L, In vivo permeability as determined by fluorescent intensity of FITC in serum. FIG. 13M, Serum level of interleukin-6.
DSS induced mild colitis treatment with LGG metabolites. To assess in vivo impact of metabolites on gut barrier function, conventional C57BL/6 mice (8 weeks of age) were administered with 2.5% dextran sodium sulfate (DSS) in drinking water to induce mild colitis. Animals were intraperitoneal injected with either PBS vehicle, 30 mg/kg methylnicotinamide chloride, or 3.6 mg/kg argininosuccinic acid dissolved in sterile PBS at Day-1 and Day 4 of the experiment. Body weight was recorded daily. At Day 7, 4 hours before sacrifice and collection of blood, animals were gavaged with 600 mg/kg with 4 kDa FITC-dextran. Blood was collected in 5% EDTA and subsequently centrifuged at 3000 g for 5 minutes for plasma collection. FITC readings were collected by diluting 25 μl of plasma in 75 μl of PBS and analyzed using a Glomax (Promega, GMMTE9032) with Ex490/Em510-570 filter cube module. Serum concentration of interleukin-6 (Cat. No. Biolegend 431304) was also determined. Ileum and colon sections were collected, fixed in 4% paraformaldehyde, processed for embedding in paraffin wax. Pathohistology of intestine was observed by routine H&E staining.

For `C[n+]1cccc(C(N)=O)c1` [Methylnicotinamide, 1-methynicotinamide], the “E-cad abundance and localization in colonic epithelial cells” value was “significantly increased”, the “Ocln expression in colonic epithelium” value was “significantly elevated Ocln expression” and the “pathology score (epithelial cell disruption and immune cell infiltration)” value was “improved pathology score”. For the same molecule, the “DSS-induced leaky gut (overall)” value (listed as MNA) was “sealed the leaky gut; also recorded: improves” and the “serum IL-6 level” value (listed as MNA) was “decreased; also recorded: reduced serum proinflammatory IL-6 levels”.

Source: patent publication US20240350456A1, “COMPOSITIONS AND METHODS FOR DIAGNOSING AND TREATING INFLAMMATORY CONDITIONS” (RUTGERS, THE STATE UNIVERSITY OF NEW JERSEY, priority 2023, published 2024)
